Measurements reported in patent US20160115129A1, “NOVEL F[…] ACID ESTER COMPOUND AND SALT THEREOF” (TAIHO PHARMACEUTICAL CO., LTD., priority 2013, published 2016).

Legend:
female SD rats = experiment: Urethral baseline pressure (intraurethral pressure) in anesthetized rats after oral administration; type: in vivo; details: 10 mg/kg oral, 11-week-old female SD rats, 30 minutes after 8 hours from administration, compared with solvent administration group (Student's t-test), FIG. 1
Method: The compounds of the present invention and a comparative compound were individually orally administered in an amount of 10 mg/kg to 11-week-old female SD rats (test substance-administration groups) and distilled water was orally administered as the control to 11-week-old female SD rats (solvent administration group, n=8). As the comparative compound, 4-piperidyl 2,2-diphenyl-2-propoxyacetate was used (Comparative Example).
Seven and a half hours after administration, each rat was anesthetized by intraperitoneal administration of 1.2 g/kg of urethane. Thereafter, the ureters and the area between the urethra and the bladder were ligated, and a vesical fistula catheter and a catheter for measuring intraurethral pressure were inserted and indwelled in the bladder and the urethra. […] Intravesical pressure and intraurethral pressure were recorded via a polygraph connected with the pressure transducers. […] Physiological saline was injected into the urethra using the micro syringe pump connected to the urethra at 3 mL/hr, and the changes in intraurethral pressure associated with the rhythmic contraction were recorded.
The mean values of the urethral baseline pressure for the solvent administration group and the test substance-administration groups were calculated, and the results were indicated as mean±SE. […]

Cl.O=C(OC1CCNCC1)C(OCC(F)(F)C(F)(F)F)(c1ccccc1)c1ccccc1
melting point: 98 to 100 °C

CCCOC(C(=O)OC1CCNCC1)(c1ccccc1)c1ccccc1 [comparative compound, 4-piperidyl 2,2-diphenyl-2-propoxyacetate]
urethral baseline pressure (female SD rats): little effect
urethral baseline pressure (female SD rats; listed as Comparative Example): did not have a significant effect

Cl.O=C(OC1CCNCC1)C(OCC(F)(F)C(F)F)(c1ccccc1)c1ccccc1
melting point: 128 to 130 °C

Cl.O=C(COCCC(F)F)OC1CCNCC1
melting point: 130 to 132 °C

Cl.O=C(OC1CCNCC1)C(OCCCF)(c1ccccc1)c1ccccc1
melting point: 135 to 136 °C

Cl.O=C(OC1CCNCC1)C(OCC(F)F)(c1ccccc1)c1ccccc1
melting point: 172 to 174 °C

Cl.O=C(OC1CCNCC1)C(OCCC(F)(F)F)(c1ccccc1)c1ccccc1
melting point: 152 to 153 °C
